Data from ChEMBL document CHEMBL1201862, “PubChem BioAssay data set” (2004).
Activity calls are given as the source filed them.

Assays:
[1] = biological target: T1, Histone-lysine N-methyltransferase NSD2 (Homo sapiens, UniProt O96028); assay type: biochemical
T1 sequence (O96028 whole entry): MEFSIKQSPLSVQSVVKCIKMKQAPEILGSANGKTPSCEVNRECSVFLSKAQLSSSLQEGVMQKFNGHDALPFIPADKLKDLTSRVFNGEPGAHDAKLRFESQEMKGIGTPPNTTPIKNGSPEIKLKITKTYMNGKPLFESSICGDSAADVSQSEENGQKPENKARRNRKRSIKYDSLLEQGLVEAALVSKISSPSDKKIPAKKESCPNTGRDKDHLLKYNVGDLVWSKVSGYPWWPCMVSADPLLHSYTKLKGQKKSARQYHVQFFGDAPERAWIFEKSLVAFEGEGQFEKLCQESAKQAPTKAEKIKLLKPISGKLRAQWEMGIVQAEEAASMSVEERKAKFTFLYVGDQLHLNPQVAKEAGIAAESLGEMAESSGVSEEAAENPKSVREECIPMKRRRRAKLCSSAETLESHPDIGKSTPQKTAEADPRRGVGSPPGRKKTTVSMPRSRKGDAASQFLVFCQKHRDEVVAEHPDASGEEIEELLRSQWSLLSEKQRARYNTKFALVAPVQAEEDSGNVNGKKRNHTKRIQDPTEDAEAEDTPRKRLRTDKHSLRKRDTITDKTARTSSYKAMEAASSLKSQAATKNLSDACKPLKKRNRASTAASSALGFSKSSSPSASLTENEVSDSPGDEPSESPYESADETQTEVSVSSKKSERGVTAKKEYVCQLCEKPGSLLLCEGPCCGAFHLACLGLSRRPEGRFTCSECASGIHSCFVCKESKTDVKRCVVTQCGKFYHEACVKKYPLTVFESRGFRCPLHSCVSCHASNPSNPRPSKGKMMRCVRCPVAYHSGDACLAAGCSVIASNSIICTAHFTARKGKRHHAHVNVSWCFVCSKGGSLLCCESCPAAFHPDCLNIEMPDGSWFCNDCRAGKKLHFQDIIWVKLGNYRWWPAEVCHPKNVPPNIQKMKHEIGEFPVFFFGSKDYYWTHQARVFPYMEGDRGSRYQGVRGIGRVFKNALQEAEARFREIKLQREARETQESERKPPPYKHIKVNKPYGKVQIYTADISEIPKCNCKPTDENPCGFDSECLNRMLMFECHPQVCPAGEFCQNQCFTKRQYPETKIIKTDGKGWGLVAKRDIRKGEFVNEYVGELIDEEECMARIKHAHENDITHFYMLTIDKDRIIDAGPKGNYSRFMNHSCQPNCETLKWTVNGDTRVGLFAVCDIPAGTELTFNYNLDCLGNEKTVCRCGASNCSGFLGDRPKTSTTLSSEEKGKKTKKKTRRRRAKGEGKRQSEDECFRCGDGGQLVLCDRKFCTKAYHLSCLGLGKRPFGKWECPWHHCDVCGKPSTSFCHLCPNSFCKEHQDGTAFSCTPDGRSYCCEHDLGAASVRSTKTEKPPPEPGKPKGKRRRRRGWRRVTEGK

[2] = biological target: Cyclin-dependent kinase 5 (Homo sapiens, UniProt Q00535); assay type: functional;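 note: CDK5 measured as one member of a kinase profiling panel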
[3] = biological target: Receptor-type tyrosine-protein kinase FLT3 (Homo sapiens, UniProt P36888); assay type: functional;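 note: FLT3 was tested as one member of a kinome-wide kinase panel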
Chain of Receptor-type tyrosine-protein kinase FLT3 (P36888 whole entry): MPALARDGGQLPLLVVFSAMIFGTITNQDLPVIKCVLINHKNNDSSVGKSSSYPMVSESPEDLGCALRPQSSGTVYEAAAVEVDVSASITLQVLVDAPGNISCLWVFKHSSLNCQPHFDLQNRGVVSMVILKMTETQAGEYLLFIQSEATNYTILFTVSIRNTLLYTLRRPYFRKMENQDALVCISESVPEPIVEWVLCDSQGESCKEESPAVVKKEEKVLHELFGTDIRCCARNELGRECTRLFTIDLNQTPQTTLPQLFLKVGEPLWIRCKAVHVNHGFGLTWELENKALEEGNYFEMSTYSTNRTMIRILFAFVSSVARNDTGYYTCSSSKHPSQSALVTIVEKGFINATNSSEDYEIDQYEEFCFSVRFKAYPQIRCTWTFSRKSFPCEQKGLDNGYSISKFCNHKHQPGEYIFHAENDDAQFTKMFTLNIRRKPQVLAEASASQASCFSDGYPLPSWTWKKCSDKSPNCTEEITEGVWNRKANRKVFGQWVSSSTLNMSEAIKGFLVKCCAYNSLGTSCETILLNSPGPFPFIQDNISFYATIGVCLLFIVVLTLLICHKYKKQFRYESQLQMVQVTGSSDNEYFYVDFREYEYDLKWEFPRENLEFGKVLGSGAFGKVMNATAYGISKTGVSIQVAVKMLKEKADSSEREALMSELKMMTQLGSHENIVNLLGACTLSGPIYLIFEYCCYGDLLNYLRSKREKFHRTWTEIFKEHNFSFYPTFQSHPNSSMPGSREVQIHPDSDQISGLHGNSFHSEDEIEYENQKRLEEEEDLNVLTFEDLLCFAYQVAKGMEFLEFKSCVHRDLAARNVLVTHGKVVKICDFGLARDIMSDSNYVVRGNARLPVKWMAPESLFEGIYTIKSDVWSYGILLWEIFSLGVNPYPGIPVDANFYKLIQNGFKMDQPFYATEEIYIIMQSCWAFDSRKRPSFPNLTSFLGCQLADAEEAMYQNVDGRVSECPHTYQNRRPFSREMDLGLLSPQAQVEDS

[4] = biological target: Ribosomal protein S6 kinase alpha-3 (Homo sapiens, UniProt P51812); assay type: functional;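 note: measured within a kinome-wide profiling panel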
[5] = biological target: High affinity nerve growth factor receptor (Homo sapiens, UniProt P04629); assay type: functional;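 note: NTRK1 tested as one member of a kinome-wide profiling panel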
[6] = biological target: Tyrosine-protein kinase JAK3 (Homo sapiens, UniProt P52333); assay type: functional
[7] = biological target: Mitogen-activated protein kinase 9 (Homo sapiens, UniProt P45984); assay type: functional;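 note: value from a kinome panel profiling assay, MAPK9 panel entry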
Aurora kinase A = Aurora kinase A (Homo sapiens, UniProt O14965); assay type: functional;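 note: value from the Navigating the Kinome kinase panel profiling, panel entry STK6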
[8] = biological target: Glycogen synthase kinase-3 alpha (Homo sapiens, UniProt P49840); assay type: functional;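 note: GSK3A result taken from a broad kinome-wide kinase panel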
[9] = biological target: Serine/threonine-protein kinase PAK 4 (Homo sapiens, UniProt O96013); assay type: functional;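 note: value obtained within a kinome profiling panel in which PAK4 was one of the panel members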
[10] = biological target: Dual specificity tyrosine-phosphorylation-regulated kinase 1A (Homo sapiens, UniProt Q13627); assay type: functional;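 note: measured against DYRK1A as one member of a broad kinome profiling panel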
[11] = biological target: Mitogen-activated protein kinase 8 (Homo sapiens, UniProt P45983); assay type: functional;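 note: value comes from one member of a kinome-wide kinase profiling panel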
Chain of Mitogen-activated protein kinase 8 (P45983 whole entry): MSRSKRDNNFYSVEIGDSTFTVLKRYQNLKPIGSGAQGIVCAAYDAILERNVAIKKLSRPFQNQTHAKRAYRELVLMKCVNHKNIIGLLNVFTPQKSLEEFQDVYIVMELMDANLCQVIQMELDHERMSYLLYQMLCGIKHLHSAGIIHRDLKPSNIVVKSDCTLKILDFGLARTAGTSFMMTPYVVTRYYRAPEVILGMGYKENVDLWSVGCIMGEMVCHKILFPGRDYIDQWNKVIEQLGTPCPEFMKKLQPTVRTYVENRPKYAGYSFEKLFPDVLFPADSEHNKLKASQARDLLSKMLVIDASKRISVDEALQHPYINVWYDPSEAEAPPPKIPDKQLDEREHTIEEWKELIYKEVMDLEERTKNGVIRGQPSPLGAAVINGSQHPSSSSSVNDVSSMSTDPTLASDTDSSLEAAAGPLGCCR

[12] = biological target: Glycogen synthase kinase-3 beta (Homo sapiens, UniProt P49841); assay type: functional;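 note: value comes from a broad kinome profiling panel, with GSK3B as the panel member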
[13] = biological target: Fibroblast growth factor receptor 1 (Homo sapiens, UniProt P11362); assay type: functional
LIM domain kinase 1 = LIM domain kinase 1 (Homo sapiens, UniProt P53667); test: Navigating the Kinome. Panel member name: LIMK1; assay type: functional
[14] = biological target: Serine/threonine-protein kinase pim-1 (Homo sapiens, UniProt P11309); assay type: functional
[15] = biological target: Vascular endothelial growth factor receptor 1 (Homo sapiens, UniProt P17948); assay type: functional;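 note: measured within a kinome-wide profiling panel, FLT1 as the panel member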
[16] = biological target: Tyrosine-protein kinase ABL1 (Homo sapiens, UniProt P00519); assay type: functional
[17] = biological target: Rho-associated protein kinase 1 (Homo sapiens, UniProt Q13464); assay type: functional;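 note: measured within a broad kinome-wide panel profiling many kinases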
[18] = biological target: Serine/threonine-protein kinase Chk1 (Homo sapiens, UniProt O14757); assay type: functional;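 note: measured as one member of a kinome-wide kinase profiling panel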
[19] = biological target: Insulin-like growth factor 1 receptor (Homo sapiens, UniProt P08069); test: Navigating the Kinome. Panel member name: IGF1R; assay type: functional
[20] = biological target: Vascular endothelial growth factor receptor 2 (Homo sapiens, UniProt P35968); assay type: functional
Chain of Vascular endothelial growth factor receptor 2 (P35968 whole entry): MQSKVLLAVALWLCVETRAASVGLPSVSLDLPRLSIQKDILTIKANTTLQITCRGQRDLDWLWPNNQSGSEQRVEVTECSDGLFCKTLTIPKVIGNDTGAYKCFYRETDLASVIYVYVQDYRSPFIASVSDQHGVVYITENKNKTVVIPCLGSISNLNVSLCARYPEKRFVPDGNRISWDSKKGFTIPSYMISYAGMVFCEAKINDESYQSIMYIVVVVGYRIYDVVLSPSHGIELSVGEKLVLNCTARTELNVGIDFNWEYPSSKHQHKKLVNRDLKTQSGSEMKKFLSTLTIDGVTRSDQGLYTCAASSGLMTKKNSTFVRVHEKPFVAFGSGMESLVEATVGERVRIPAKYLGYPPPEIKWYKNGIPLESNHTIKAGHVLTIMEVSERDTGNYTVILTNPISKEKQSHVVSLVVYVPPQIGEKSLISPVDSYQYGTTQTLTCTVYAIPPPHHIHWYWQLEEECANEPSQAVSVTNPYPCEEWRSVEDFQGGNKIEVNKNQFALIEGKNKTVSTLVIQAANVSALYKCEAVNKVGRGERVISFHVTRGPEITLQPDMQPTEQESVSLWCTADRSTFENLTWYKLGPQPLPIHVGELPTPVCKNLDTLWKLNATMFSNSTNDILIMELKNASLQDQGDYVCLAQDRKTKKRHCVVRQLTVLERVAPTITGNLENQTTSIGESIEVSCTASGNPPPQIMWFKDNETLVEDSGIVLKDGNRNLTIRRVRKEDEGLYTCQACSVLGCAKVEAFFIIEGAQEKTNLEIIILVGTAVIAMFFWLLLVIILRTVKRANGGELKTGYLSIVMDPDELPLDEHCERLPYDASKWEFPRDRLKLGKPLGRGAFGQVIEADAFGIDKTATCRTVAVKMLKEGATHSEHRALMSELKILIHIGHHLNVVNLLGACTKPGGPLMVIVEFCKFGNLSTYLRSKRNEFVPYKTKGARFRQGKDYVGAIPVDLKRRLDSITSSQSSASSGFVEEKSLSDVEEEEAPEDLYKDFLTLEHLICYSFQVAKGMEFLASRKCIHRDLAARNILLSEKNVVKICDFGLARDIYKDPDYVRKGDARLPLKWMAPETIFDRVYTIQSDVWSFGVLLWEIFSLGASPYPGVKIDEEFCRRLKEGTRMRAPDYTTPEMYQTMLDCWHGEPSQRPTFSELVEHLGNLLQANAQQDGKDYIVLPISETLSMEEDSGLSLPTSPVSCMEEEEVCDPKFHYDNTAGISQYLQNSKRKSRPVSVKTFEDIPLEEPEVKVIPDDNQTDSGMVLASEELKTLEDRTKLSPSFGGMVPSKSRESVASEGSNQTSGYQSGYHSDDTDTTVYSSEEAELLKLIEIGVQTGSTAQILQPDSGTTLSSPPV

Aurora kinase B = Aurora kinase B (Homo sapiens, UniProt Q96GD4); assay type: functional
Chain of Aurora kinase B (Q96GD4 whole entry): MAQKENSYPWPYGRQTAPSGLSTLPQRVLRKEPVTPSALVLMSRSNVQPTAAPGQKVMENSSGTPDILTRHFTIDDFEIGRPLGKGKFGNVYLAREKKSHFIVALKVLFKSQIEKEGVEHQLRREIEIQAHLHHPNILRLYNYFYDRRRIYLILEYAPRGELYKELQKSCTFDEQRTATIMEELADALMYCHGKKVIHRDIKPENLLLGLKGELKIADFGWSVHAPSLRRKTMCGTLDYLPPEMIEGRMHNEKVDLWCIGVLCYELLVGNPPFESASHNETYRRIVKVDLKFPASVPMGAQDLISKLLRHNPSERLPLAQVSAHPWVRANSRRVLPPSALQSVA

[21] = biological target: BDNF/NT-3 growth factors receptor (Homo sapiens, UniProt Q16620); assay type: functional;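 note: NTRK2 measured as one member of a broad kinome-wide kinase profiling panel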
Chain of BDNF/NT-3 growth factors receptor (Q16620 whole entry): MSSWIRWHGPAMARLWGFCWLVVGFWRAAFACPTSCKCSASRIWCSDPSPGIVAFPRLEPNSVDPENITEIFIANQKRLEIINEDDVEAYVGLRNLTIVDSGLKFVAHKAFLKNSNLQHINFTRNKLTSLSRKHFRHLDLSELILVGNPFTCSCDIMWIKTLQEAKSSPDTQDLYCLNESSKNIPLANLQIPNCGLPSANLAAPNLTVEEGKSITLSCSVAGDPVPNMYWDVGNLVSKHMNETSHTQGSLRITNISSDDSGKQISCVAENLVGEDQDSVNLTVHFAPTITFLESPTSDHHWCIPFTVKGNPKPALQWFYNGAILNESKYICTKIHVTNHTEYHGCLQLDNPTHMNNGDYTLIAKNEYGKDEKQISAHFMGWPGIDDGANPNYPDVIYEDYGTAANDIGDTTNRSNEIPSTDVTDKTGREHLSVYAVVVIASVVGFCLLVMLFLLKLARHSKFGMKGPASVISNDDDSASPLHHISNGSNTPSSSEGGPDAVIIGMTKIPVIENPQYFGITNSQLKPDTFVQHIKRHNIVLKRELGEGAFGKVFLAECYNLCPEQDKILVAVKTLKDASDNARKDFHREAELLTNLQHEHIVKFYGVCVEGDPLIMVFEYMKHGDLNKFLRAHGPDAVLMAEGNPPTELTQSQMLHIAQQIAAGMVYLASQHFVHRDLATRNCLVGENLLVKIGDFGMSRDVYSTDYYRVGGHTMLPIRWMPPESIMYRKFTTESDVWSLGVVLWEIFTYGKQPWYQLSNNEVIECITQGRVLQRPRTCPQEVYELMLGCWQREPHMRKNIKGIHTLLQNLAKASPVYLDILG

[22] = biological target: Tyrosine-protein kinase Fyn (Homo sapiens, UniProt P06241); assay type: functional
[23] = biological target: Tyrosine-protein kinase Lck (Homo sapiens, UniProt P06239); assay type: functional;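 note: lck was assayed as one member of a kinase panel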
[24] = biological target: 5'-AMP-activated protein kinase catalytic subunit alpha-1 (Homo sapiens, UniProt Q13131); assay type: functional
[25] = biological target: Tyrosine-protein kinase JAK2 (Homo sapiens, UniProt O60674); assay type: functional;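 note: JAK2 tested as one member of a kinase panel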
Chain of Tyrosine-protein kinase JAK2 (O60674 whole entry): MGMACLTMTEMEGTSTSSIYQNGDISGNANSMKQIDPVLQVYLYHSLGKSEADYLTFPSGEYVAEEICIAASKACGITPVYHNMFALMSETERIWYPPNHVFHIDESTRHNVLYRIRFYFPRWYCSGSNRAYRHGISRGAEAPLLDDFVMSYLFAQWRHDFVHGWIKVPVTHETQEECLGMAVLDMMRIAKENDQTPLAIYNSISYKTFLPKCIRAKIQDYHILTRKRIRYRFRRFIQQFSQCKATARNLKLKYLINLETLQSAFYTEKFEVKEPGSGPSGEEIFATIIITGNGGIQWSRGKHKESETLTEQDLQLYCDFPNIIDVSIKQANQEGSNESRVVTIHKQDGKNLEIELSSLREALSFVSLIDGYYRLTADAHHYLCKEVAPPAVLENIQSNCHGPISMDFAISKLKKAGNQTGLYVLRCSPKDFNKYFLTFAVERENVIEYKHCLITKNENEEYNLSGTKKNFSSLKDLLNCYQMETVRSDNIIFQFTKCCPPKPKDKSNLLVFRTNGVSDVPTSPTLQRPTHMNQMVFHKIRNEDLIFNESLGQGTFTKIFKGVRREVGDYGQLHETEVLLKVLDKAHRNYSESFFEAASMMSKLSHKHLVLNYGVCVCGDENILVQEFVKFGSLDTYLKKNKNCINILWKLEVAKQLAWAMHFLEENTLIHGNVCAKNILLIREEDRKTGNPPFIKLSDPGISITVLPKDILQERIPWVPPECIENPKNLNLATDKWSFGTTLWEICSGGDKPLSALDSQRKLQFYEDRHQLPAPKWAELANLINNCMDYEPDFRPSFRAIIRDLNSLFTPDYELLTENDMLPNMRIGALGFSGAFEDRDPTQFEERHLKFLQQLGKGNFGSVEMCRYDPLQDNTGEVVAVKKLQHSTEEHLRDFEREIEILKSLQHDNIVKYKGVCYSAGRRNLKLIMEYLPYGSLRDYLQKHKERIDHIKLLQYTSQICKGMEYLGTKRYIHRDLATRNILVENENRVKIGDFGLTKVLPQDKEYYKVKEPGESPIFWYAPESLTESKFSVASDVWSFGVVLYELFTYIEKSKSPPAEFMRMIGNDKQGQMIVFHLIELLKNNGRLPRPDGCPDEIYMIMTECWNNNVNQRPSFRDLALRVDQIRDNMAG

Ki [2] | Ki [3] | Ki [4] | Ki [5] | Ki [6] | Ki [7] | Ki (Aurora kinase A) | Ki [8] | Ki [9] | Ki [10] | Ki [11] | Ki [12] | Ki [13] | Ki (LIM domain kinase 1) | Ki [14] | Ki [15] | Ki [16] | Ki [17] | Ki [18] | SMILES | AC50 [1] | further results
 |  |  |  |  |  |  |  |  |  |  |  |  |  |  |  |  |  |  | O=C1C=C(NCc2ccccc2)c2ccccc2C1=O | 2.16 µM (active) | 
 |  |  |  |  |  |  |  |  |  |  |  |  |  |  |  |  |  |  | O=C(O)c1[nH]c2ccccc2c1C(c1cc(Cl)cc([N+](=O)[O-])c1O)c1c(C(=O)O)[nH]c2ccccc12 | 16.6 µM (active) | 
5.01 µM (active) | > 2.51 µM (inactive) | > 7.94 µM (inactive) | > 2.51 µM (inactive) | > 1.58 µM (inactive) | > 3.98 µM (inactive) | > 6.31 µM (inactive) | 7.94 µM (active) | > 5.01 µM (inactive) | > 6.31 µM (inactive) | > 3.16 µM (inactive) | > 6.31 µM (inactive) | > 5.01 µM (inactive) | > 10 µM (inactive) | > 10 µM (inactive) | > 0.398 µM (inactive) | > 0.631 µM (inactive) | 0.158 µM (active) | > 7.94 µM (inactive) | CCOC(=O)c1cn(-c2ccc(O)cc2C)c2cc(-c3ccncc3)ccc2c1=O |  | Ki [19]: > 1 µM (inactive); Ki [20]: > 7.94 µM (inactive); Ki (Aurora kinase B): > 6.31 µM (inactive); Ki [21]: > 5.01 µM (inactive); Ki [22]: > 0.794 µM (inactive); Ki [23]: > 2.51 µM (inactive); Ki [24]: > 10 µM (inactive); Ki [25]: > 1.58 µM (inactive)
> 3.16 µM (inactive) | > 3.16 µM (inactive) | > 3.98 µM (inactive) | 0.0631 µM (active) | > 5.01 µM (inactive) | > 3.98 µM (inactive) | > 1.58 µM (inactive) | > 3.98 µM (inactive) | > 5.01 µM (inactive) | > 2 µM (inactive) | > 5.01 µM (inactive) | > 3.98 µM (inactive) | > 3.98 µM (inactive) | > 3.16 µM (inactive) | > 6.31 µM (inactive) | > 3.98 µM (inactive) | > 2.51 µM (inactive) | > 3.98 µM (inactive) | > 3.16 µM (inactive) | Cc1cc(=O)[nH]nc1-c1ccc(NC(=O)Nc2cc(C(F)(F)F)ccc2F)c(Cl)c1 |  | Ki [19]: > 2.51 µM (inactive); Ki [20]: 0.316 µM (active); Ki (Aurora kinase B): > 3.98 µM (inactive); Ki [21]: 0.01 µM (active); Ki [22]: > 6.31 µM (inactive); Ki [23]: > 6.31 µM (inactive); Ki [24]: > 3.16 µM (inactive); Ki [25]: > 2.51 µM (inactive)
